Results: US20230285260A1, “USE OF SACCHARIDES FOR CRYOPROTECTION AND RELATED TECHNOLOGY” (Zeltiq Aesthetics, Inc., priority 2017, published 2023)

System: subject's skin
Experiment: pre-cooling skin treatment followed by cooling (freeze) treatment at subject's flank, compared to a control site
Format: in vivo, human
Details: general statement of the inventors' finding
Experimental: A mixture of trehalose, water, and […] (PG) was tested as a pre-cooling skin treatment. The mixture was formed by combining 100 grams of trehalose, 100 mL of water, and 40 mL of PG. The trehalose was expected to provide cryoprotection, while the water and PG were expected to act as penetration-enhancing excipients. A first site at a subject's right flank was given the pre-cooling skin treatment, while an opposite second site at the subject's left flank was designated as a control. The pre-cooling treatment at the first site included placing a small piece of rayon fabric soaked in […] of the mixture directly onto the subject's skin and waiting for 12 minutes. It was expected that passive diffusion of trehalose into the subject's skin occurred to some extent during this period. Next, an ultrasound cavitation device (40 kHz) was moved top-to-bottom and bottom-to-top over the subject's skin at the first site for 3 minutes. During this period, 5 mL of the mixture was poured over the subject's skin at the first site.
After the pre-cooling skin treatment at the first site, an applicator having a rectangular plate-type heat-transfer surface with an area of 1.7 square inches was used to execute a cooling treatment at the first and second sites. […]

In the case of `OC[C@H]1O[C@H](O[C@H]2O[C@H](CO)[C@@H](O)[C@H](O)[C@H]2O)[C@H](O)[C@@H](O)[C@@H]1O` [trehalose], the “reducing cryoinjury to skin cells” value is reported as “effective”.
